Data on 40 molecules can be found in patent US20260083851A1 (AVILAR THERAPEUTICS, INC., priority 2022, published 2026).

Read-outs that look alike come from different tables or passages of the source. A value given as a limit tells only on which side of the number the result lay.

The assay has as its target T1, ASGP receptor (biotinylated ASGPR) (Homo sapiens, UniProt P07306).
T1 construct: biotin (biotinylated)
T1 sequence (P07306 1-291): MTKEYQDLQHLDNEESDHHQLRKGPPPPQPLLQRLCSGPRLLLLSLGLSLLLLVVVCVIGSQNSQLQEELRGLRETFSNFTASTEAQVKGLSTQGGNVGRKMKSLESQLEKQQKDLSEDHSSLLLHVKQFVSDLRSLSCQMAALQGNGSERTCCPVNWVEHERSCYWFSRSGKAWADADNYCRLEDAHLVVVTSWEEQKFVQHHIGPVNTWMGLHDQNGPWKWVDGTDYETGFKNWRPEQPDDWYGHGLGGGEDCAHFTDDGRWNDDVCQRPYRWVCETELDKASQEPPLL
The class given is binding. The settings on record: SPR.

The mark [1] stands for this setting: Biacore 8K, 25° C., Table 1C, read-out: ASGPR KD.
Setting [2] is: Biacore 8K, 25° C., Table 1A, read-out: ASGPR KD.
The mark [3] stands for this setting: Biacore 8K, 25° C., Table 1D, read-out: ASGPR KD.
The mark [4] stands for this setting: Biacore 8K, 25° C., Table 1B, read-out: ASGPR Kd.
Setting [5] is: Biacore 8K, 25° C., Table 1E, read-out: ASGPR KD.

In general, Kd refers to the concentration at which binding is half-saturated. As to `O=C(O)c1ccc(N2CCN(C[C@H]3OC[C@H](Nc4cncc(C(F)(F)F)n4)[C@@H](O)[C@H]3O)CC2)nn1` [A207, 6-(4-(((2R,3R,4R,5S)-3,4-dihydroxy-5-((6-(trifluoromethyl)pyrazin-2-yl)amino)tetrahydro-2H-pyran-2-yl)methyl)piperazin-1-yl)pyridazine-3-carboxylic acid], the dissociation constant (Kd) under setting [1] was less than 10 µM.
On to `OCc1cnc(OC[C@H]2OC[C@H](Nc3cncc(C(F)(F)F)n3)[C@@H](O)[C@H]2O)nc1` [A222, (2R,3R,4R,5S)-2-(((5-(hydroxymethyl)pyrimidin-2-yl)oxy)methyl)-5-((6-(trifluoromethyl)pyrazin-2-yl)amino)tetrahydro-2H-pyran-3,4-diol], for which the Kd under setting [1] was less than 10 µM.
Consider `O=C(O)c1ccc2c(c1)C(F)(F)c1cc(C(=O)NC[C@H]3OC[C@H](Nc4cncc(C(F)(F)F)n4)[C@@H](O)[C@H]3O)ccc1-2` [A52], for which the Kd under setting [2] was less than 10 µM.
For `O[C@@H]1[C@H](O)[C@@H](Oc2cncc(C(F)(F)F)n2)CO[C@@H]1COc1ncccn1` [A417], the dissociation constant (Kd) under setting [3] was less than 10 µM.
Consider `O=C(NC[C@H]1OC[C@H](Nc2cncc(C(F)(F)F)n2)[C@@H](O)[C@H]1O)c1ccc(-c2ccccc2)nc1` [A7, N-(((2R,3R,4R,5S)-3,4-dihydroxy-5-((6-(trifluoromethyl)pyrazin-2-yl)amino)tetrahydro-2H-pyran-2-yl)methyl)-6-phenylnicotinamide], for which, under setting [2], the Kd was less than 10 µM.
On to `O=C(c1ccc(Cl)cc1)[C@H]1OC[C@H](Oc2cccc(C(F)(F)F)n2)[C@@H](O)[C@H]1O` [A299], for which the Kd under setting [1] is less than 10 µM.
For `OC[C@H]1O[C@@H](c2ccccc2)[C@H](Nc2nccc(C(F)(F)F)n2)[C@@H](O)[C@H]1O` [A94, (2R,3R,4R,5R,6S)-2-(hydroxymethyl)-6-phenyl-5-((4-(trifluoromethyl)pyrimidin-2-yl)amino)tetrahydro-2H-pyran-3,4-diol], under setting [2], the Kd is less than 10 µM.
On the same count and under the same terms, the same measure for `O=C(NC[C@H]1OC[C@H](Nc2cncc(C(F)(F)F)n2)[C@@H](O)[C@H]1O)c1ccc2c(n1)CCNC2` [A77, N-(((2R,3R,4R,5S)-3,4-dihydroxy-5-((6-(trifluoromethyl)pyrazin-2-yl)amino)tetrahydro-2H-pyran-2-yl)methyl)-5,6,7,8-tetrahydro-1,6-naphthyridine-2-carboxamide]: less than 10 µM; for `O=C(O)COCCOCC(=O)NC[C@H]1OC[C@H](Nc2cccc(C(F)(F)F)n2)[C@@H](O)[C@H]1O` [A103, 2-(2-(2-((((2R,3R,4R,5S)-3,4-dihydroxy-5-((6-(trifluoromethyl)pyridin-2-yl)amino)tetrahydro-2H-pyran-2-yl)methyl)amino)-2-oxoethoxy)ethoxy)acetic acid]: less than 10 µM.
Take `CC(C)(C)OC(=O)N1CC(Cc2ccc(OC[C@H]3OC[C@H](Oc4cccc(C(F)(F)F)n4)[C@@H](O)[C@H]3O)nn2)C1` [A256]: the Kd under setting [1] is less than 10 µM.
On to `OC[C@H]1OC[C@H](Oc2cncc(C(F)(F)F)n2)[C@@H](O)[C@H]1O` [A141, (2R,3R,4S,5S)-2-(hydroxymethyl)-5-((6-(trifluoromethyl)pyrazin-2-yl)oxy)tetrahydro-2H-pyran-3,4-diol], for which the Kd under setting [4] is less than 10 µM.
`O=C(O)c1ccc(OC[C@@]23CO[C@@H](O2)[C@H](Nc2cncc(C(F)(F)F)n2)[C@@H](O)[C@H]3O)nn1` [A281]: the Kd under setting [1] is less than 10 µM.
As for `C[C@H]1O[C@H](c2nnc(-c3ccccc3)o2)[C@H](Oc2cccc(C(F)(F)F)n2)[C@@H](O)[C@H]1O` [A448], the equilibrium dissociation constant (Kd) under setting [5] was less than 10 µM.
Regarding `O[C@@H]1[C@H](O)[C@@H](Oc2cccc(C(F)(F)F)n2)CO[C@@H]1CN1CCN(c2cnccn2)CC1` [Compound A248], the Kd under setting [1] was less than 10 µM.
Still for that read-out and setting: the figure for `O[C@@H]1[C@H](O)[C@@H](Oc2cccc(C(F)(F)F)n2)CO[C@@H]1COc1ccccn1` [A287] is less than 10 µM.
With `O=C(OCc1ccccc1)N1CCC(N2C[C@H](Nc3cccc(C(F)(F)F)n3)[C@@H](O)[C@@H](O)C2)C(F)(F)C1` (stereo partly shown) [A412], under setting [3], the Kd is less than 10 µM.
For the molecule `C[C@H]1O[C@H](CO)[C@H](Oc2nccc(C(F)(F)F)n2)[C@@H](O)[C@H]1O` [A437], the Kd under setting [5] was in the range of 10 to 100 µM.
For `O=C(O)COCCOCC(=O)NC[C@H]1OC[C@H](Nc2ccnc(C(F)(F)F)c2)[C@@H](O)[C@H]1O` [A107, 2-(2-(2-((((2R,3R,4R,5S)-3,4-dihydroxy-5-((2-(trifluoromethyl)pyridin-4-yl)amino)tetrahydro-2H-pyran-2-yl)methyl)amino)-2-oxoethoxy)ethoxy)acetic acid], the Kd under setting [2] was less than 10 µM.
Take `C[C@H]1O[C@H](COc2ncccn2)[C@H](Oc2cccc(C(F)(F)F)n2)[C@@H](O)[C@H]1O` [A447]: under setting [5], the dissociation constant Kd is less than 10 µM.
As for `COC(=O)c1ccc(-c2ccc(C(=O)N3C[C@H](Nc4cncc(C(F)(F)F)n4)[C@@H](O)[C@@H](O)C3)cc2)cc1` [A391], the Kd under setting [3] was less than 10 µM.
Turning to `O[C@@H]1[C@H](O)[C@@H](Nc2cccc(C(F)(F)F)n2)CO[C@@H]1COc1ncccn1` [A226, (2R,3R,4R,5S)-2-((pyrimidin-2-yloxy)methyl)-5-((6-(trifluoromethyl)pyridine-2-yl)amino)tetrahydro-2H-pyran-3,4-diol], the Kd under setting [1] is less than 10 µM.
As for `O=C(O)c1ccc(N2CCC(CN3CCN(C[C@H]4OC[C@H](Nc5cncc(C(F)(F)F)n5)[C@@H](O)[C@H]4O)CC3)CC2)nn1` [A16, 6-(4-((4-(((2R,3R,4R,5S)-3,4-dihydroxy-5-((6-(trifluoromethyl)pyrazin-2-yl)amino)tetrahydro-2H-pyran-2-yl)methyl)piperazin-1-yl)methyl)piperidin-1-yl)pyridazine-3-carboxylic acid], the Kd under setting [2] was less than 10 µM.
Regarding `O=C(NC[C@H]1OC[C@H](Nc2cncc(C(F)(F)F)n2)[C@@H](O)[C@H]1O)c1ccnnc1` [A27, N-(((2R,3R,4R,5S)-3,4-dihydroxy-5-((6-(trifluoromethyl)pyrazin-2-yl)amino)tetrahydro-2H-pyran-2-yl)methyl)pyridazine-4-carboxamide], the Kd under setting [2] was less than 10 µM.
With `OCC1CCN(c2ccc(N3C[C@H](Nc4cncc(C(F)(F)F)n4)[C@@H](O)[C@@H](O)C3)nn2)CC1` [A394], under setting [3], the Kd is less than 10 µM.
Regarding `O[C@@H]1[C@H](O)[C@@H](Oc2cccc(C(F)(F)F)n2)CO[C@@H]1COc1ccc(N2CCNCC2)c(F)c1` [A247], the Kd under setting [1] was less than 10 µM.
As for `O[C@@H]1[C@H](O)[C@@H](Nc2cncc(C(F)(F)F)n2)CO[C@@H]1CNc1cccnc1` [A28, (2R,3R,4R,5S)-2-((pyridin-3-ylamino)methyl)-5-((6-(trifluoromethyl)pyrazin-2-yl)amino)tetrahydro-2H-pyran-3,4-diol], the Kd under setting [2] was less than 10 µM.
Take `O=C(NC[C@H]1OC[C@H](Nc2cncc(C(F)(F)F)n2)[C@@H](O)[C@H]1O)c1cnc2ccccc2c1` [A8, N-(((2R,3R,4R,5S)-3,4-dihydroxy-5-((6-(trifluoromethyl)pyrazin-2-yl)amino)tetrahydro-2H-pyran-2-yl)methyl)quinoline-3-carboxamide]: the Kd under setting [2] is less than 10 µM.
Consider `O[C@@H]1[C@H](O)[C@@H](Oc2cccc(C(F)(F)F)n2)CO[C@@H]1CN1CCN(c2cccnn2)CC1` [A264], for which, under setting [1], the Kd was less than 10 µM.
With `O=C(NC[C@H]1OC[C@H](Nc2cncc(C(F)(F)F)n2)[C@@H](O)[C@H]1O)c1ccc2[nH]cnc2c1` [A6, N-(((2R,3R,4R,5S)-3,4-dihydroxy-5-((6-(trifluoromethyl)pyrazin-2-yl)amino)tetrahydro-2H-pyran-2-yl)methyl)-1H-benzo[d]imidazole-5-carboxamide], the Kd under setting [2] was less than 10 µM.
Regarding `CC(C)(C)OC(=O)N1CC2CN(C[C@H]3OC[C@H](Oc4cccc(C(F)(F)F)n4)[C@@H](O)[C@H]3O)CC2C1` (stereo partly shown) [A262], the Kd under setting [1] was less than 10 µM.
In the case of `OC[C@H]1OC[C@H](Nc2cncc(Cl)n2)[C@@H](O)[C@H]1O` [A147, (2R,3R,4R,5S)-5-((6-chloropyrazin-2-yl)amino)-2-(hydroxymethyl) tetrahydro-2H-pyran-3,4-diol], the Kd under setting [4] was less than 10 µM.
As to `O[C@@H]1[C@@H](Nc2nc(Cl)nn3cccc23)CNC[C@@H]1O` [A382], the Kd under setting [3] was 10 to 100 µM.
As to `CC1(C)C(=O)c2ccc(-c3cnc(N4CCN5C(=O)N(CCCNC(=O)c6ccc7c(c6)C(F)(F)c6cc(C(=O)NC[C@H]8OC[C@H](Nc9cncc(C(F)(F)F)n9)[C@@H](O)[C@H]8O)ccc6-7)C[C@@H]5C4)nc3)nc2N1Cc1cccnc1C#N` [compound 20], the Kd (Table 2, read-out: ASGPR SPR Binding KD) is less than 0.1 µM.
Regarding `CN1C[C@H](Oc2cccc(C(F)(F)F)n2)[C@@H](O)[C@@H](O)C1` [A403], under setting [3], the Kd was 10 to 100 µM.
Turning to `O=C(Oc1ccc(-c2ccccc2)cc1)N1C[C@H](Nc2cncc(C(F)(F)F)n2)[C@@H](O)[C@@H](O)C1` [A384], the Kd under setting [3] is less than 10 µM.
In the case of `O[C@@H]1[C@H](O)[C@@H](Nc2cccc(OC(F)(F)F)n2)CO[C@@H]1COc1cccc(OC(F)(F)F)n1` [A144, (2R,3R,4R,5S)-5-((6-(trifluoromethoxy)pyridin-2-yl)amino)-2-(((6-(trifluoromethoxy)pyridin-2-yl)oxy)methyl) tetrahydro-2H-pyran-3,4-diol], the equilibrium dissociation constant (Kd) under setting [4] was less than 10 µM.
For `O=C1c2occc2CN1C[C@H]1OC[C@H](Oc2cccc(C(F)(F)F)n2)[C@@H](O)[C@H]1O` [A290], under setting [1], the Kd was less than 10 µM.
`O[C@@H]1[C@@H](Oc2cccc(C(F)(F)F)n2)CSC[C@@H]1O` [A345]: the Kd under setting [1] is less than 10 µM.
Take `O=C(c1ccc(Cc2ccccc2)cc1)N1C[C@H](Nc2cncc(C(F)(F)F)n2)[C@@H](O)[C@@H](O)C1` [A364]: the Kd under setting [3] is less than 10 µM.
For `O=C1c2ccc(F)cc2CN1C[C@H]1OC[C@H](Oc2cccc(C(F)(F)F)n2)[C@@H](O)[C@H]1O` [A273], the Kd under setting [1] was less than 10 µM.
